Assay results reported in PubChem BioAssay (NCI).
Where “and” joins values, the source holds several entries; their conditions need not be identical. Equal values may be shown once.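 Growth conditions: 96-well plates. Treatment: test compound, 48 hours, 5 concentrations. Analysis: linear interpolation between bracketing concentrations; unreached endpoints set to highest concentration. GI50 is the concentration that inhibits growth by half. TGI is the concentration that stops growth completely.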

Columns and labels:
Test in all cases: NCI tumour cell line growth inhibition, 48 h
[1] = system: NCI-H460 lung
[2] = system: LOX IMVI melanoma
[3] = system: COLO 205 colon
[4] = system: RXF 393 renal
[5] = system: OVCAR-3 ovarian
[6] = system: SF-295 CNS
[7] = system: OVCAR-4 ovarian
[8] = system: UACC-257 melanoma
[9] = system: IGROV1 ovarian
[10] = system: DLD-1 colon

SMILES	TGI [1]	TGI [2]	TGI [3]	TGI [4]	TGI [5]	TGI [6]	TGI [7]	TGI [8]	TGI [9]	TGI [10]	GI50 [1]	GI50 [2]	GI50 [3]	GI50 [4]	GI50 [5]	GI50 [6]	GI50 [7]	GI50 [8]	GI50 [9]
CC1S(=O)(=O)OCCOS1(=O)=O	> 100 µM	> 100 µM	> 100 µM	> 100 µM	> 100 µM	> 100 µM	> 100 µM	> 100 µM	> 100 µM	> 100 µM									
Cc1cc2c3ccccc3n(C)c2c2c1C(=O)C=CC2=O	33.2 µM	32.9 µM	33.6 µM	20.5 µM	28.3 µM	54.3 µM	18.7 µM	18.7 µM	36.8 µM	27 µM									
NNC(=O)CCC(=O)NC1C2CC3CC(C2)CC1C3 (centres undefined)	> 100 µM	> 100 µM	> 100 µM	> 100 µM		> 100 µM	> 100 µM	> 100 µM	> 100 µM	> 100 µM									
Cn1nc(-c2ccccc2)c(C(=O)/C=C/c2ccccc2)c(N2CCOCC2)c1=O	54.7 µM	60.5 µM	35.9 µM	25.9 µM					52.9 µM	> 100 µM									
O=C1C(Cl)=C(Nc2cccc(O)c2)C(=O)N1c1cc(Cl)c(Cl)cc1Cl	38.4 µM	28 µM	38 µM	30.6 µM	36.1 µM	53.2 µM	51.8 µM	77.2 µM	21.2 µM		18 µM	13 µM	18 µM	14.9 µM	15.9 µM	20.6 µM	22.7 µM	30.3 µM	8.87 µM
CC(=O)[O-].CC(=O)[O-].[NH2-].[Pt+2].c1ccc2cnccc2c1	> 100 µM	31.7 µM	> 100 µM	24 µM	> 100 µM	> 100 µM	> 100 µM	6.49 µM	> 100 µM		26.2 µM	9.19 µM	24.7 µM	0.0522 µM	42.2 µM	> 100 µM	22.3 µM		24.6 µM
CC1=C(O)C(=O)C2C(=O)C1C(C)C2c1ccc(Cl)cc1 (centres undefined)		> 100 µM	> 100 µM	> 100 µM	> 100 µM	> 100 µM	> 100 µM		> 100 µM	> 100 µM									
C[C@@H]1COCCN1c1cc(C2(S(C)(=N)=O)CC2)nc(-c2ccnc3[nH]ccc23)n1 (some centres undefined)	20.6 µM	12.7 µM	29 µM	6.76 µM	38.9 µM	19.8 µM	23.7 µM	52.7 µM	63.1 µM		1.07 µM	1.63 µM	11.7 µM	1.46 µM	5.76 µM	1.66 µM	1.86 µM	11.7 µM	3.63 µM
COc1cc(/C=C/C(=O)c2sc(Nc3ccccc3)nc2C)ccc1O	> 100 µM	> 100 µM	> 100 µM	> 100 µM	> 100 µM	> 100 µM		> 100 µM	> 100 µM	> 100 µM									
OCc1ccc(-c2nn(Cc3ccccc3)c3ccccc23)o1	29.4 µM and 28.5 µM	29.8 µM and 27.7 µM	26.2 µM and 21.7 µM	30.7 µM and 38 µM	9.8 µM and 13.4 µM	33.7 µM and 46 µM	> 100 µM	0.972 µM and 1.59 µM	22.5 µM and > 93.1 µM		12.8 µM and 12.2 µM	14.6 µM	8.05 µM and 5.73 µM	7.94 µM and 14.8 µM	1.35 µM and 1.71 µM	13.4 µM and 18.5 µM	10.2 µM and 28.1 µM	0.268 µM and 0.32 µM	0.508 µM and 0.288 µM
CC/C=C\C/C=C\C/C=C\CCCCCCCC(=O)OCC		> 100 µM	> 100 µM		> 100 µM	> 100 µM	> 100 µM	> 100 µM	> 100 µM	> 100 µM									
Cc1nc2sc(C(=O)Nc3ccccc3)c(N)c2cc1C(=O)/C=C/c1ccccc1	4.15 µM	3.13 µM	4.49 µM	3.25 µM	4.14 µM	7.56 µM	18.5 µM	5.29 µM	4.73 µM		1.96 µM	1.68 µM	2.02 µM	1.67 µM	1.9 µM	2.77 µM	3.1 µM	2.11 µM	1.99 µM
CC(=O)Oc1ccc(O)c(O)c1C/C=C(\C)CC/C=C(\C)CC/C=C(\C)CCC=C(C)C	1.31 µM	0.694 µM	0.341 µM	2.47 µM		4.27 µM	1.72 µM	2.26 µM		1.41 µM									
CCCCN(Cc1ccc(F)cc1)c1ccc(CO)c(Cl)c1	13.4 µM	31.5 µM	27.2 µM	21.1 µM	12.9 µM	17.2 µM	13.6 µM	3.75 µM	3.49 µM		2.46 µM	16.3 µM	14 µM	7.16 µM	3.74 µM	3.96 µM	2.54 µM	0.862 µM	0.677 µM
Cc1ccc(C(O)c2cnc(C)n2Cc2ccccc2)cc1 (centres undefined)	> 100 µM	> 100 µM	> 100 µM	> 100 µM	> 100 µM	> 100 µM	> 100 µM	> 100 µM	> 100 µM										
O=C1C2=C(c3ccccc31)C(c1ccccc1)NC(=S)N2 (centres undefined)	> 100 µM		> 100 µM		> 100 µM	> 100 µM	> 100 µM	> 100 µM	> 100 µM	> 100 µM									
C=C1CC[C@@H]2[C@](C)(COC(C)=O)[C@H](OC(C)=O)CC[C@@]2(C)[C@@H]1CC(Nc1ccc(S(=O)(=O)Nc2nccc(C)n2)cc1)C1=CCOC1=O (some centres undefined)	18.3 µM	3.24 µM	4.66 µM	4.18 µM	3.36 µM	25.6 µM	15.8 µM	16.4 µM	13.6 µM		4.88 µM	1.53 µM	2.09 µM	2.33 µM	1.76 µM	12.4 µM	4.37 µM	4.8 µM	3.62 µM
O=C(O)c1cc(=O)c2[nH]c3ccccc3c2s1	> 100 µM		> 100 µM	> 100 µM	> 100 µM	> 100 µM	> 100 µM	> 100 µM	> 100 µM	> 100 µM									
